Results reported in patent US12448388B2, “PRMT5 inhibitors and uses thereof” (Gilead Sciences, Inc., priority 2023, dated 2025).
Where two headings read alike, the source gives them in different places.

Key:
[1] = Pharmacokinetics in cassette in male Sprague-Dawley rats for Kp measurement; format: in vivo; details: 1 mg/kg, intravenous
Experimental: E.1 Test Animal: Male Sprague-Dawley Rats (225-300 g) with Indwelling Bilateral Jugular Vain Cannula (JVC/JVC) or Single Jugular Vein Cannula (JVC)
E.2 Pharmaceutical Formulation and Administration
Test compound was dissolved in the vehicle of 10% DMSO, 10% ethanol, 40% polyethylene glycol 300, and 40% propylene glycol to get 1 mg/mL test compound solution. The compound was administered by intravenous administration at a dose of 1 mL/kg. Fasting was not required.
• Anticoagulant: K2EDTA • Volume: approximately 225 μL blood at each bleed • Jugula vein via syringe and needle or another method (non-terminal samples) or exsanguination (cardiac puncture) under isoflurane (or CO2 inhalation if isoflurane is unavailable) anesthesia (terminal time points). Blood samples were collected into K2EDTA tubes • Tissue collection and processing: following the terminal blood collection, the brain and CSF were collected from each animal.

[2] = Hepatocyte stability assay, human; format: in vitro ADME; details: human hepatocytes, 1 μM
Outline: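 Cryopreserved hepatocytes (viability ≥85%) incubated with 1 μM compound at 1×10^6 cells/mL in KHB, 37 °C, 95% air/5% CO2, sampled at 0, 1, 3 and 6 h. Parent remaining quantified by LC-MS/MS; half-life from first-order exponential fit (ln2/k), scaled to intrinsic hepatic clearance.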

[3] = Cell viability assay (CellTiter-Glo, 7 days), HCT116 WT; format: cell-based; details: human, HCT116 WT cells, 7 days of treatment, CTG
Outline: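 First, compounds are serially diluted in DMSO and dispensed into plates, which are frozen until seeding. Next, cells are added and incubated 7 days at 37 °C, 5% CO2, 90% humidity. Finally, CellTiter-Glo reagent is added and luminescence is measured to derive CC50.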

[4] = brain Kp = [brain]/[plasma], rat, read-out: Rat brain Kp
[5] = brain Kpu,u = Kp * (plasma free/rat brain free), read-out: Rat brain Kpu,u

In the case of `Nc1nc2cc(F)c(C(=O)N3CCC[C@@H]4Oc5cc(C(F)(F)F)ccc5[C@@H]43)cc2n2cncc12` [Ff-104, (4-amino-7-fluoroimidazo[1,5-a]quinoxalin-8-yl)((4aS,9bS)-7-(trifluoromethyl)-3,4,4a,9b-tetrahydrobenzofuro[3,2-b]pyridin-1(2H)-yl)methanone], the Kp [1, 4] is reported as 0.39, the Kp [1, 5] is reported as 0.07 and the “Human Predicted Hepatocyte CL” value [2] is reported as 8.3 mL/min/kg. The CC50 at 7 days [3] was 470 nM.
In the case of `Cc1ncn2c1c(N)nc1cnc(C(=O)N3CCC[C@@H]4Oc5cc(C(F)(F)F)ccc5[C@@H]43)cc12` [Ff-499, (4-amino-3-methylimidazo[1,5-a]pyrido[3,4-e]pyrazin-8-yl)((4aS,9bS)-7-(trifluoromethyl)-3,4,4a,9b-tetrahydrobenzofuro[3,2-b]pyridin-1(2H)-yl)methanone], the Kp [1, 4] is reported as 0.67, the Kp [1, 5] is reported as 0.15 and the “Human Predicted Hepatocyte CL” value [2] is reported as 4.17 mL/min/kg. The CC50 at 7 days [3] was 897 nM.
With `C[C@@H]1CN(C(=O)c2cc3c(cc2F)nc(N)c2cncn23)[C@H]2c3ccc(OC(F)(F)F)cc3C[C@H]2O1` (single isomer, unassigned) [Ff-183] the Kp [1, 4] was 0.41, the Kp [1, 5] was 0.06 and the “Human Predicted Hepatocyte CL” value [2] was 3 mL/min/kg. It also gave a CC50 at 7 days [3] of 853 nM.
